Results as given in US20180099931A1 (AbbVie S.à.r.l., priority 2016, published 2018).
Like-named read-outs stand apart in the source and are kept apart here.

Target: T1, F508delCFTR (Homo sapiens, UniProt P13569, DEL508-508)
T1 construct: expressed in transfected cells; host or cells: CFBE41o- human lung-derived epithelial cells (CFBE4lo-F508delCFTR-HRP), doxycycline-inducible
Experiment: Cell Surface Expression-Horse Radish Peroxidase (CSE-HRP) Assay;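 for Maximum % activity (with co-corrector): co-corrector and positive control are both the same reference corrector at 2 µM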;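 for Maximum % activity (without co-corrector): percent of the 2 µM on-plate positive control corrector response above DMSO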
Format: cell-based
Conditions: for Emax: read-out: Maximum % activity (without co-corrector)

[1] = test compound without co-corrector, maximum at any tested concentration, normalized to on-plate positive control
[2] = test compound without co-corrector, read-out: EC50 (without co-corrector)
[3] = with co-corrector (2 μM of 3-[(2R,4R)-4-({[1-(2,2-difluoro-1,3-benzodioxol-5-yl)cyclopropyl]carbonyl}amino)-7-methoxy-3,4-dihydro-2H-chromen-2-yl]benzoic acid), maximum at any tested concentration, normalized to on-plate positive control
[4] = with co-corrector (2 μM of 3-[(2R,4R)-4-({[1-(2,2-difluoro-1,3-benzodioxol-5-yl)cyclopropyl]carbonyl}amino)-7-methoxy-3,4-dihydro-2H-chromen-2-yl]benzoic acid), read-out: EC50 (with co-corrector)
[5] = with co-corrector (2 μM), maximum at any tested concentration, normalized to on-plate positive control
[6] = without co-corrector, maximum at any tested concentration, normalized to on-plate positive control
[7] = CSE-HRP, test compound without co-corrector, read-out: EC50 (without co-corrector)
[8] = CSE-HRP, with co-corrector (2 μM of 3-[(2R,4R)-4-({[1-(2,2-difluoro-1,3-benzodioxol-5-yl)cyclopropyl]carbonyl}amino)-7-methoxy-3,4-dihydro-2H-chromen-2-yl]benzoic acid), read-out: EC50 (with co-corrector)
[9] = CSE-HRP, with co-corrector (2 μM), maximum at any tested concentration, normalized to on-plate positive control
[10] = CSE-HRP, without co-corrector, maximum at any tested concentration, normalized to on-plate positive control

T1 sequence (P13569 with tags, fused parts or gaps DEL508-508): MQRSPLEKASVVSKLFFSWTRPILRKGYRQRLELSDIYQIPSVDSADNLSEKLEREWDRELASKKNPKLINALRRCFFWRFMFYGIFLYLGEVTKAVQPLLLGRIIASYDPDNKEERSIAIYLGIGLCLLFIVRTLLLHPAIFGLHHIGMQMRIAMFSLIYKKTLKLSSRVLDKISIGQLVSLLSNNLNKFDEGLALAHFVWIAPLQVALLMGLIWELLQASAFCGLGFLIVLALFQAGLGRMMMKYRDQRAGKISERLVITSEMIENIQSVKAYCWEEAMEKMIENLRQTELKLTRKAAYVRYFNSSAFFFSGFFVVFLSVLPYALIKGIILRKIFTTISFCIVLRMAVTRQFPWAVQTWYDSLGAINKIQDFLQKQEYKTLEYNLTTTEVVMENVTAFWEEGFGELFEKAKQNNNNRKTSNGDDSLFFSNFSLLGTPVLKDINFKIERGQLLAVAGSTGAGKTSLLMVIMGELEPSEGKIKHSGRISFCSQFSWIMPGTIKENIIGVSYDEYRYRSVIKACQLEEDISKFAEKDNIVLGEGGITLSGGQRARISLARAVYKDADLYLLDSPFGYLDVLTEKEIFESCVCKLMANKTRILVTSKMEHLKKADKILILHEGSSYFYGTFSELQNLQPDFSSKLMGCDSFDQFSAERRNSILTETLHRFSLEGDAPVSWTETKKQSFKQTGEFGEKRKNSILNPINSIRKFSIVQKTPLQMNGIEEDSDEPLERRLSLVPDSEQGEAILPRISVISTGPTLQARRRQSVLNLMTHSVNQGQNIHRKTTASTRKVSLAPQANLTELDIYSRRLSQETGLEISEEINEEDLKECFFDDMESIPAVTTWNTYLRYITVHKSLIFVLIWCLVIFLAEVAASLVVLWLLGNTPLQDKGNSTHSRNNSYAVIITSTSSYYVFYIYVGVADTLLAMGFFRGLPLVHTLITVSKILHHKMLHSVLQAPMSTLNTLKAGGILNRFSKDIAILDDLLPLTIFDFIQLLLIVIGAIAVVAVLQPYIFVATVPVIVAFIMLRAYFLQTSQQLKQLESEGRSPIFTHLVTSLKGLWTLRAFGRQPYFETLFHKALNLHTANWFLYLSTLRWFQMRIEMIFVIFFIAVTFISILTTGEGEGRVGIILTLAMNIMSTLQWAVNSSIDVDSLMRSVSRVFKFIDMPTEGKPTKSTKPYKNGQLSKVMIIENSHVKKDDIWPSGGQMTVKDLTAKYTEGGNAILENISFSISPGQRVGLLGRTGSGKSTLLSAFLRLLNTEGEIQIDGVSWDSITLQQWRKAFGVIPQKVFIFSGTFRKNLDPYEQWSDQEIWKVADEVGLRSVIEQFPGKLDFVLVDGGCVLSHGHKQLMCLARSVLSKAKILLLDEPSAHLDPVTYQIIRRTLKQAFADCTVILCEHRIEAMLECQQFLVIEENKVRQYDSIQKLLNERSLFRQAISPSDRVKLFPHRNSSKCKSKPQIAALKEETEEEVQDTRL

SMILES	Emax [1] [%]	EC50 [2] [nM]	EC50 [4] [nM]	Maximum % activity (with co-corrector) [5]	also measured
COc1cnc(-c2ccccc2F)cc1CN[C@H]1[C@H](C(C)(C)C)[C@@H](C(=O)O)N(C(=O)C2CCCCC2)[C@H]1c1ccccc1 [II-417]	100 to 200	1000 to 10000	1000 to 10000	–	Maximum % activity (with co-corrector) [3]: +++ (≥350)
COc1cnc(C2CCC2)cc1CN[C@H]1[C@H](C(C)(C)C)[C@@H](C(=O)O)N(C(=O)C2CCCCC2)[C@H]1c1ccccc1 [Example I-168]	–	1000 to 10000	1000 to 10000	+++ (≥350)	Emax [6]: < 100%
COc1ccc(C(C)(C)C)cc1CN[C@H]1[C@H](C(C)(C)C)[C@@H](C(=O)O)N(C(=O)[C@@H]2OCC[C@@H]2C(C)C)[C@H]1c1ccccc1 (relative stereo) [Example I-104, (2S,3S,4S,5S)-3-tert-butyl-4-{[(5-tert-butyl-2-methoxyphenyl)methyl]amino}-5-phenyl-1-[(2R*,3R*)-3-(propan-2-yl)oxolane-2-carbonyl]pyrrolidine-2-carboxylic acid]	–	1000 to 10000	1000 to 10000	+++ (≥350)	Emax [6]: 100 to 200%
COc1ccc(-n2ncc(C(=O)N3[C@H](C(=O)O)[C@@H](C(C)(C)C)[C@H](NCc4cc(C(C)(C)C)ccc4OC)[C@@H]3c3ccccc3)c2C)cc1 [II-357]	> 200	1000 to 10000	< 1000	–	Maximum % activity (with co-corrector) [3]: +++ (≥350)
COc1nc(C(C)(C)C)ccc1CN[C@H]1[C@H](C(C)(C)C)[C@@H](C(=O)O)N(C(=O)C2CCCC(F)(F)C2)[C@H]1c1ccccc1 (relative stereo) [Example 53, (2S,3S,4S,5S)-3-tert-butyl-4-{[(6-tert-butyl-2-methoxypyridin-3-yl)methyl]amino}-1-[(1R*)-3,3-difluorocyclohexane-1-carbonyl]-5-phenylpyrrolidine-2-carboxylic acid]	–	1000 to 10000	< 1000	+++ (≥350)	Emax [6]: > 200%
COc1ccc(C23CC(C2)C3)cc1CN[C@H]1[C@H](C(C)(C)C)[C@@H](C(=O)O)N(C(=O)OC(C)C)[C@H]1c1ccccc1 [Example I-210]	–	1000 to 10000	< 1000	+++ (≥350)	Emax [6]: > 200%
COc1ncc(C2CCC2)cc1CN[C@H]1[C@H](C(C)(C)C)[C@@H](C(=O)O)N(C(=O)C2CCC2)[C@H]1c1ccccc1C(F)(F)F [Example I-278]	–	–	–	–	EC50 [7]: 1000 to 10000 nM; EC50 [8]: 1000 to 10000 nM; Maximum % activity (with co-corrector) [9]: ++ (≥150 and <350); Emax [10]: < 100%
COc1ncc(C(F)(F)F)cc1CN[C@H]1[C@H](C(C)(C)C)[C@@H](C(=O)O)N(C(=O)[C@@H]2CCCC(F)(F)C2)[C@H]1c1ccccc1 [Example 49, (2S,3S,4S,5S)-3-tert-butyl-1-[(1R)-3,3-difluorocyclohexane-1-carbonyl]-4-({[2-methoxy-5-(trifluoromethyl)pyridin-3-yl]methyl}amino)-5-phenylpyrrolidine-2-carboxylic acid]	–	1000 to 10000	< 1000	+++ (≥350)	Emax [6]: > 200%
CC(C)(C)[C@H]1[C@H](NCc2cc(Br)ccc2OC(F)F)[C@H](c2ccccc2)N(C(=O)C2CCCCC2)[C@@H]1C(=O)O [III-131]	< 100	< 1000	1000 to 10000	+++ (≥350)	–
COc1ccc(C(C)(C)C)cc1CN[C@H]1[C@H](C(C)(C)C)[C@@H](C(=O)O)N(C(=O)C2CCc3ccc(F)cc3O2)[C@H]1c1cccnc1N(C)C (single isomer, unassigned) [II-453]	–	> 10000	< 1000	–	Maximum % activity (without co-corrector) [1]: + (<100); Maximum % activity (with co-corrector) (with co-corrector (2 μM of 3-[(2R,4R)-4-({[1-(2,2-difluoro-1,3-benzodioxol-5-yl)cyclopropyl]carbonyl}amino)-7-methoxy-3,4-dihydro-2H-chromen-2-yl]benzoic acid), maximum at any tested concentration, normalized to on-plate positive control, 2 µM): ++ (≥150 and <350)
COc1ccc(C(C)(C)C)cc1CN[C@H]1[C@H](C(C)(C)C)[C@@H](C(=O)O)N(C(=O)Cc2ccc(O)cc2)[C@H]1c1ccccc1 [II-195]	–	–	–	–	EC50 [7]: 1000 to 10000 nM; EC50 [8]: 1000 to 10000 nM; Maximum % activity (with co-corrector) [9]: +++ (≥350); Emax [10]: > 200%
COc1ccc(C(C)(C)C)cc1CN[C@H]1[C@H](C(C)(C)C)[C@@H](C(=O)O)N(C(=O)C2CCc3cc(F)ccc3O2)[C@H]1c1cccnc1N(C)C (stereo partly drawn) [III-210]	< 100	1000 to 10000	1000 to 10000	++ (≥150 and <350)	–
COc1ccc(C23CC(C2)C3)cc1CN[C@H]1[C@H](C(C)(C)C)[C@@H](C(=O)O)N(C(=O)[C@H]2CCC[C@H](OC)C2)[C@H]1c1ccccc1 [II-516]	> 200	1000 to 10000	< 1000	–	Maximum % activity (with co-corrector) [3]: +++ (≥350)
COc1cc(C(C)(C)C)ccc1CN[C@H]1[C@H](C(C)(C)C)[C@@H](C(=O)O)N(C(=O)C2CCCCC2)[C@H]1c1cccnc1OC [II-101]	–	–	–	–	EC50 [7]: 1000 to 10000 nM; EC50 [8]: 1000 to 10000 nM; Maximum % activity (with co-corrector) [9]: +++ (≥350); Emax [10]: 100 to 200%
COc1ccc(C(C)(C)C#N)cc1CN[C@H]1[C@H](C(C)(C)C)[C@@H](C(=O)O)N(C(=O)C2CCCCC2)[C@H]1c1ccccc1 [Example I-88]	–	1000 to 10000	1000 to 10000	+++ (≥350)	Emax [6]: 100 to 200%
COc1ccc(C(C)(C)C)cc1CN[C@H]1[C@H](C(C)(C)C)[C@@H](C(=O)O)N(C(=O)c2cnn(-c3ccc(F)cc3F)c2C)[C@H]1c1ccccc1 [II-356]	> 200	1000 to 10000	< 1000	–	Maximum % activity (with co-corrector) [3]: +++ (≥350)
COc1ccc2cc(C)nc(N[C@H]3[C@H](C(C)(C)C)[C@@H](C(=O)O)N(C(=O)C4CCCCC4)[C@H]3c3ccccc3)c2c1 [III-154]	< 100	1000 to 10000	1000 to 10000	++ (≥150 and <350)	–
COc1cc(OC)c(CN[C@@H]2[C@@H](C(C)(C)C)[C@H](C(=O)O)N(C(=O)C3CCCCC3)[C@@H]2c2ccccc2)cc1Cl (racemic) [III-20]	< 100	1000 to 10000	1000 to 10000	–	Maximum % activity (with co-corrector) [3]: ++ (≥150 and <350)
COc1ccc(C(C)(C)C)cc1CN[C@H]1[C@H](C(C)(C)C)[C@@H](C(=O)O)N(C(=O)C2CC(=O)N(C3CC3)C2)[C@H]1c1ccccc1 (stereo partly drawn) [II-239]	–	–	–	–	EC50 [7]: 1000 to 10000 nM; EC50 [8]: 1000 to 10000 nM; Maximum % activity (with co-corrector) [9]: +++ (≥350); Emax [10]: 100 to 200%
COc1ccc(C(F)(F)F)cc1CN[C@H]1[C@H](C23CC(C2)C3)[C@@H](C(=O)O)N(C(=O)C2CCCCC2)[C@H]1c1ccccc1 [Example 56]	–	1000 to 10000	< 1000	+++ (≥350)	Emax [6]: 100 to 200%
COc1cc(C(F)(F)F)ccc1CN[C@H]1[C@H](C23CC(C2)C3)[C@@H](C(=O)O)N(C(=O)C2CCCCC2)[C@H]1c1ccccc1 [II-470]	100 to 200	1000 to 10000	< 1000	–	Maximum % activity (with co-corrector) [3]: +++ (≥350)
COc1ncc(C2CCC2)cc1CN[C@H]1[C@H](C(C)(C)C)[C@@H](C(=O)O)N(C(=O)C2CCCC(C(F)(F)F)C2)[C@H]1c1ccccc1 (stereo partly drawn) [III-209]	100 to 200	1000 to 10000	< 1000	+++ (≥350)	–
COc1ncc(C2CCC2)cc1CN[C@H]1[C@H](C(C)(C)C)[C@@H](C(=O)O)N(C(=O)C2CCCCC2)[C@H]1c1ccccc1C [Example 92, (2S,3S,4S,5S)-3-tert-butyl-4-{[(5-cyclobutyl-2-methoxypyridin-3-yl)methyl]amino}-1-(cyclohexanecarbonyl)-5-(2-methylphenyl)pyrrolidine-2-carboxylic acid]	–	< 1000	< 1000	+++ (≥350)	Emax [6]: > 200%
Cc1cc(C)cc(CN[C@H]2[C@H](C(C)(C)C)[C@@H](C(=O)O)N(C(=O)C3CCCCC3)[C@H]2c2ccccc2)c1 [II-132]	–	–	–	–	EC50 [7]: 1000 to 10000 nM; EC50 [8]: 1000 to 10000 nM; Maximum % activity (with co-corrector) [9]: +++ (≥350); Emax [10]: < 100%
CC(C)(C)[C@H]1[C@H](NCc2ccc(C(F)(F)F)cc2F)[C@H](c2ccccc2)N(C(=O)C2CCCCC2)[C@@H]1C(=O)O [III-136]	< 100	> 10000	1000 to 10000	++ (≥150 and <350)	–
COc1ccc(C(C)(C)C)cc1CN[C@H]1[C@H](C(C)(C)C)[C@@H](C(=O)O)N(C(=O)C2Cc3ccccc3O2)[C@H]1c1ccccc1 (single isomer, unassigned) [II-272]	–	–	–	–	EC50 [7]: 1000 to 10000 nM; EC50 [8]: 1000 to 10000 nM; Maximum % activity (with co-corrector) [9]: +++ (≥350); Emax [10]: 100 to 200%
CC(C)(C)[C@@H]1[C@@H](NCc2ccccc2OC(F)(F)F)[C@@H](c2ccccc2)N(C(=O)C2CCCCC2)[C@H]1C(=O)O (racemic) [II-76]	–	–	–	–	EC50 [7]: 1000 to 10000 nM; EC50 [8]: 1000 to 10000 nM; Maximum % activity (with co-corrector) [9]: +++ (≥350); Emax [10]: < 100%
